Measured values as given in patent US4795715A, “Aminoalkoxy or carboxyalkoxy derivatives of propranolol for immunoassay applications” (Drug Science Foundation, priority 1986, dated 1989).

Tested on: propranolol antiserum (produced in Example 1)
Experiment: Specificity (cross-reactivity) of the antiserum of Example 1: inhibition of 3H propranolol-antibody complex formation (radioimmunoassay)
Assay type: binding, rabbit
Conditions: for relative efficiency of the compound with respect to propranolol as an inhibitor (percentage): propranolol = 100 %; for ID50 (amount of compound giving 50% inhibition of 3H-propranolol binding to antiserum): dl-[4-3H]-propranolol tracer
Method: Five New Zealand White rabbits were injected with an emulsion of the antigen as follows. For each animal, a solution was prepared consisting of 1 mg. of antigen dissolved in 0.8 ml. of 0.01M phosphate buffered saline at pH 7.4 and emulsified with 1.0 ml. of complete Freund's adjuvant. One hundred microliters of this emulsion was injected subcutaneously into each of the hind toe pads with the remainder divided between the hindquarters intramuscularly. One week later the animals were boosted with the same formulation, and additional boosts were administered at montly intervals thereafter. […] Bleedings were taken from the central ear artery seven to ten days after each boost, and weekly once the titre was sufficient. Blood was allowed to clot overnight at 4° C. and centrifuged to separate antiserum.
Radioactive dl-[4-^3 H]-propranolol with a specific activity of 21 C./mMol was obtained from the Radiochemical Center Amersham. This tritiated propranolol was diluted in the assay buffer just prior to use to obtain about 15000 cpm in 100 microliters of solution; 100 microliters of this preparation was added to each tube, including two background controls. The propranolol antiserum was diluted to 1:2000 in the buffer and 100 microliters of this solution was added to each tube with the exception of the background controls. The tubes were then vortexed, incubated at 37° C. for one hour, and cooled in an ice bath for 10 minutes prior to the addition of dextran-coated charcoal suspension.
Each tube was treated with one ml. of cold dextran-coated charcoal suspension and vortexed briefly, then incubated at 0° C. for 7-10 minutes prior to centrifugation at 5000 RPM in a refrigerated centriguge for 25 minutes. The supernatants were decanted into suitably labelled scintillation vials, dissolved in 10 ml. of counting cocktail and counted for 1-5 minutes. Counting cocktail was prepared by dissolving 40 g. of Omnifluor™ (purchased from New England Nuclear) and 2 liters of S-A-S Solubilizer™ (purchased from Research Products International Corp.) in 10 liters of toluene.

Structure (SMILES)	cross reactivity with the antiserum (in words)	relative efficiency of the compound with respect to propranolol as an inhibitor (percentage)	ID50 (amount of compound giving 50% inhibition of 3H-propranolol binding to antiserum)
CC(C)NCC(O)COc1ccc(O)c2ccccc12 (stereo not drawn) [4-Hydroxy-Propranolol]	significant cross reactivity	30%	–
CC(C)NCC(COc1cccc2ccccc12)OC1OC(C(=O)O)C(O)C(O)C1O (stereo not drawn) [Propranolol Glucuromide]	–	0.07%	700 ng
CC(C)NCC(O)COc1cccc2c(O)cccc12 (stereo not drawn) [5-Hydroxy-Propranolol]	cross-react	90%	–
CC(C)NCC(O)COc1cccc2ccccc12 (racemic) [Propranolol]	–	100%	–
NCC(O)COc1cccc2ccccc12 (stereo not drawn) [Ndesisopropyl Propranolol Amino]	–	0.06%	780 ng
